Assay results taken from PubChem BioAssay (NCI).
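Cultured in 96-well plates, cells were exposed to test compound for 48 hours across five concentrations. Here, GI50 denotes the concentration required for 50% inhibition of growth. At the TGI there is no net growth.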

Test system: T-47D breast
Experiment: inhibition of tumour cell growth, NCI panel, 48 h

SMILES	GI50 [µM]	TGI [µM]
CCN(CC)CCOc1ccc(-c2nc3cc(Cl)ccc3s2)cc1	1.5	4.11
C=C1C(=O)O[C@@H]2C[C@@H]1CC/C(C)=C/CC/C(C)=C/CC[C@@]2(C)O	34.2	> 100
CC(C)=CC/C=C(/C)[C@H]1CC[C@]2(C)[C@@H]1CC[C@@H]1[C@@]3(C)CCCNC(C)(C)[C@@H]3CC[C@]12C	2.09	5.03
NC(=Nc1c([N+](=O)[O-])cnc2ccccc12)N1CCOCC1	–	> 100
CC(C)=CCNc1ncnc2c1ncn2C1OC(CO)C(O)C1O (stereo not drawn)	0.983	3.92
NC(=O)NC1C(c2ccccc2)=C1c1ccccc1	–	> 100
CN1CCN(CCOc2ccc(-c3cnc4c(-c5ccccc5F)cnn4c3)cc2)CC1	1.38	3.93
CN(C)N=Nc1ccc(NC=O)cc1	–	> 100
COc1cc(C2CC(c3cccc(Br)c3)=NN2C(C)=O)cc(OC)c1OC (stereo not drawn)	0.372	29.7

Test system: NCI-H522 lung
Experiment: inhibition of tumour cell growth, NCI panel, 48 h

SMILES	GI50 [µM]	TGI [µM]
OC[C@H]1C[C@](O)(c2ccc(Cl)cc2)[C@@H](c2ccc(Cl)cc2)O1	26	52.9
CC(C)N(C(=O)C12C3C4C5(C#N)C3C1(C#N)C5C42I)C(C)C (stereo not drawn)	–	> 100
C=COCCCOc1ccccc1	–	> 100
COc1cc2nc(-c3ccc(Cl)cc3)cc(OCCCN3CCCCC3)c2cc1OC	3.28	> 100
COc1ccc2c3c([nH]c2c1[N+](=O)[O-])C(C)=NCC3	–	> 100
C=C(c1nc2ccc(Cl)cc2[nH]c1=O)C(O)c1ccc(C(O)C(=O)c2nc3ccc(Cl)cc3[nH]c2=O)cc1 (stereo not drawn)	–	> 100
O=c1c2sc(=S)n(-c3ccc(F)cc3)c2ncn1Cc1ccc(F)cc1F	> 100	> 100
CC(C)(C)CC(C)(C)c1cc2c(O)c(c1)Cc1cc(C(C)(C)CC(C)(C)C)cc(c1O)Cc1cc(C(C)(C)CC(C)(C)C)cc(c1O)Cc1cc(C(C)(C)CC(C)(C)C)cc(c1O)C2	–	> 100
Cc1cc([N+](=O)[O-])ccc1Nc1cccc(Cl)c1C	–	31
Cn1cc(CO)c2c1C(=O)C=C(N1CC1)C2=O	< 0.01	0.0775
CC1=C(C(=O)Nc2ccccc2)C(c2ccccc2)C(C(=O)Nc2ccccc2)=C(C)N1	–	> 100
CCN(CC)CCOc1ccc(-c2nc3cc(Cl)ccc3s2)cc1	1.8	3.53
C=C1C(=O)O[C@@H]2C[C@@H]1CC/C(C)=C/CC/C(C)=C/CC[C@@]2(C)O	6.36	23.7
CCOc1ccccc1C=C1c2ccccc2C(=O)c2ccccc21	–	6.57
O=C(CCn1[nH]c(=O)c(Cl)c(Cl)c1=O)NO	–	> 100
CC(C)=CC/C=C(/C)[C@H]1CC[C@]2(C)[C@@H]1CC[C@@H]1[C@@]3(C)CCCNC(C)(C)[C@@H]3CC[C@]12C	1.98	4.48

SMILES	GI50 [µM]	TGI [µM]
[N-]=[N+]=NC12CC3C4CC5CC3C(C1)C(C5)C4C2	–	> 100
CN(C)c1nc2ccccc2[nH]1	–	> 100
NNC(=S)N/N=C(\CC1OC(=O)c2ccccc21)c1ccccc1O (stereo not drawn)	–	83.8
COC1(OC)CC2C(=O)N(Cc3ccccc3)C1C(S(=O)(=O)c1ccccc1)C2S(=O)(=O)c1ccccc1 (stereo not drawn)	–	5.12
NC(=Nc1c([N+](=O)[O-])cnc2ccccc12)N1CCOCC1	–	> 100
Cc1cc(CC(O)c2ccc(Cl)c(Cl)c2)nc(=O)[nH]1 (stereo not drawn)	–	69.9
COC(=O)C(=Cc1cc(OC)ccc1OC)C(=O)OC	–	34.4
CC1=NNC(=O)C2CCC(=O)N12 (stereo not drawn)	–	> 100
CC(C)c1ccccc1NC(=O)CCc1n[nH]c(=S)o1	–	> 100
CCCCC(C(=O)C(=O)NC1C2CC3CC(C2)CC1C3)C(=O)C(C)C (stereo not drawn)	–	> 100
COC(=O)c1cc2c(s1)C(=O)c1ccccc1-2	–	> 100
Cc1ccc(S(=O)(=O)N(CC(=O)O)c2ccccc2)cc1	–	> 100
COc1ccc(C(=O)C(c2ccc(OC)cc2)C2(O)C(=O)Nc3ccc([N+](=O)[O-])cc32)cc1 (stereo not drawn)	–	> 100
O=C(/C=C/c1ccccc1O)c1ccccc1O	–	> 100
N#CC(N)(C(=O)CCC(=O)Nc1cccc(Cl)c1)c1ccc(Cl)cc1 (stereo not drawn)	–	> 100
